# Data reported in article PMC3823425 (Journal of Cellular and Molecular Medicine, 2012).
# “Also recorded” adds a separate entry of the source. Where two headings read alike, the source gives them in different places.
# How the values were obtained:
# VEGFR1 = VEGFR1 (Homo sapiens, UniProt P17948); assay: ELISA kinase assay VEGFR1; format: biochemical
# VEGFR2 [1] = target: T1, VEGFR2 (Homo sapiens, UniProt P35968); assay: biochemical
# Target sequence in this assay (P35968 834-1162 limits assumed): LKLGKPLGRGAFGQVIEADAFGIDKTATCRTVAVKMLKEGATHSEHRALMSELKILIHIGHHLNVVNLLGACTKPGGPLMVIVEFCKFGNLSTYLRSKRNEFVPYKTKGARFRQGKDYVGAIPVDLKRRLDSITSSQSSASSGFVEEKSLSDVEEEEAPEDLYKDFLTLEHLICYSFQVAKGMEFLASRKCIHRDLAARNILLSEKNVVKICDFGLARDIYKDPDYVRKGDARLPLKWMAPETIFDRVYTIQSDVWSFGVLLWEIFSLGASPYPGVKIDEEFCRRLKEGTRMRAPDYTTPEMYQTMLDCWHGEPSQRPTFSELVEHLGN
# PDGFRβ [2] = target: T2, PDGFRβ (Homo sapiens, UniProt P09619); assay: ELISA kinase assay PDGFRβ; format: biochemical
# PDGFRα [3] = target: T3, PDGFRα (Homo sapiens, UniProt P16234); assay: ELISA kinase assay PDGFRα; format: biochemical
# RET = RET (Homo sapiens, UniProt P07949); assay: ELISA kinase assay RET; format: biochemical
# c-Kit = c-Kit (Homo sapiens, UniProt P10721); assay: ELISA kinase assay c-Kit; format: biochemical
# c-Src = c-Src (Homo sapiens, UniProt P12931); assay: biochemical
# EPH-A2 = EPH-A2 (Homo sapiens, UniProt P29317); assay: ELISA kinase assay EPH-A2; format: biochemical; conditions: IC50 EPHA2, ELISA
# EPH-B2 = EPH-B2 (Homo sapiens, UniProt P29323); assay: ELISA kinase assay EPH-B2; format: biochemical
# HUVEC cells [4] = assay: VEGF-driven HUVEC proliferation; format: cell-based; conditions: Homo sapiens, read-out: IC50 VEGF-driven HUVECs proliferation
# HUVEC cells [5] = assay: b-FGF-driven HUVEC proliferation; format: cell-based; conditions: Homo sapiens, read-out: IC50 bFGF-driven HUVECs proliferation
# [6] = test system: chicken chorioallantoic membrane; assay: Chicken chorioallantoic membrane assay; format: in vivo; conditions: 48 hrs
# [7] = test system: renal carcinoma xenograft (No.213847); assay: CD31 immunohistochemistry of tumour microvessels; format: in vivo, nude mice; conditions: five consecutive days
# [8] = test system: renal carcinoma xenograft (No.213847); assay: PDGFRβ immunohistochemistry of tumour pericytes; format: in vivo, nude mice; conditions: 5 days
# [9] = test system: 786-O renal carcinoma xenograft; assay: Tumour xenograft 786-O; format: in vivo, nude mice; conditions: 786-O model, dosages below 20 mg/kg
# [10] = test system: Bxpc-3 pancreatic cancer xenograft; assay: Tumour xenograft Bxpc-3; format: in vivo, nude mice; conditions: Bxpc-3 model, dosages below 20 mg/kg
# [11] = test system: renal carcinoma xenograft No.213847; assay: Patient-derived renal carcinoma xenograft No.213847; format: in vivo, nude mice
# [12] = test system: renal carcinoma xenograft No.20090223; assay: Patient-derived renal carcinoma xenograft No.20090223; format: in vivo, nude mice
# [13] = Toxicity observed in panel of human xenograft models; format: in vivo, nude mice; conditions: p.o., 5 days per week, 5–20 mg/kg
# [14] = Plasma pharmacokinetics after p.o. administration; format: in vivo, rats
# [15] = Tissue distribution in tumour-bearing nude mice; format: in vivo; conditions: for concentration at 21 day: nude, mouse, oral, 10 mg/kg
# FGFR1 [16] = target: T4, FGFR1 (Homo sapiens, UniProt P11362); assay: bFGF-induced FGFR1 autophosphorylation in HUVEC; format: cell-based; conditions: b-FGF 25 ng/ml
# PDGFRβ [17] = target: PDGFRβ (Mus musculus, UniProt P05622); assay: PDGFBB-induced PDGFRβ autophosphorylation in Swiss3T3; format: cell-based, rat
# ERK1/2 and AKT = assay: VEGF-induced activation of ERK1/2 and AKT; format: cell-based; conditions: VEGF165 50 ng/ml
# VEGFR2 [18] = target: T1, VEGFR2; format: biochemical; conditions: pre-incubation 30 min., 100-fold dilution
# Target sequence in this assay (P35968 834-1162 limits assumed): as above
# VEGFR2 [19] = target: T1, VEGFR2; assay: Cellular VEGFR2 autophosphorylation reversible assay; format: cell-based; conditions: HUVEC, 1 μmol/L for 4 hrs
# Target sequence in this assay (P35968 20-1356): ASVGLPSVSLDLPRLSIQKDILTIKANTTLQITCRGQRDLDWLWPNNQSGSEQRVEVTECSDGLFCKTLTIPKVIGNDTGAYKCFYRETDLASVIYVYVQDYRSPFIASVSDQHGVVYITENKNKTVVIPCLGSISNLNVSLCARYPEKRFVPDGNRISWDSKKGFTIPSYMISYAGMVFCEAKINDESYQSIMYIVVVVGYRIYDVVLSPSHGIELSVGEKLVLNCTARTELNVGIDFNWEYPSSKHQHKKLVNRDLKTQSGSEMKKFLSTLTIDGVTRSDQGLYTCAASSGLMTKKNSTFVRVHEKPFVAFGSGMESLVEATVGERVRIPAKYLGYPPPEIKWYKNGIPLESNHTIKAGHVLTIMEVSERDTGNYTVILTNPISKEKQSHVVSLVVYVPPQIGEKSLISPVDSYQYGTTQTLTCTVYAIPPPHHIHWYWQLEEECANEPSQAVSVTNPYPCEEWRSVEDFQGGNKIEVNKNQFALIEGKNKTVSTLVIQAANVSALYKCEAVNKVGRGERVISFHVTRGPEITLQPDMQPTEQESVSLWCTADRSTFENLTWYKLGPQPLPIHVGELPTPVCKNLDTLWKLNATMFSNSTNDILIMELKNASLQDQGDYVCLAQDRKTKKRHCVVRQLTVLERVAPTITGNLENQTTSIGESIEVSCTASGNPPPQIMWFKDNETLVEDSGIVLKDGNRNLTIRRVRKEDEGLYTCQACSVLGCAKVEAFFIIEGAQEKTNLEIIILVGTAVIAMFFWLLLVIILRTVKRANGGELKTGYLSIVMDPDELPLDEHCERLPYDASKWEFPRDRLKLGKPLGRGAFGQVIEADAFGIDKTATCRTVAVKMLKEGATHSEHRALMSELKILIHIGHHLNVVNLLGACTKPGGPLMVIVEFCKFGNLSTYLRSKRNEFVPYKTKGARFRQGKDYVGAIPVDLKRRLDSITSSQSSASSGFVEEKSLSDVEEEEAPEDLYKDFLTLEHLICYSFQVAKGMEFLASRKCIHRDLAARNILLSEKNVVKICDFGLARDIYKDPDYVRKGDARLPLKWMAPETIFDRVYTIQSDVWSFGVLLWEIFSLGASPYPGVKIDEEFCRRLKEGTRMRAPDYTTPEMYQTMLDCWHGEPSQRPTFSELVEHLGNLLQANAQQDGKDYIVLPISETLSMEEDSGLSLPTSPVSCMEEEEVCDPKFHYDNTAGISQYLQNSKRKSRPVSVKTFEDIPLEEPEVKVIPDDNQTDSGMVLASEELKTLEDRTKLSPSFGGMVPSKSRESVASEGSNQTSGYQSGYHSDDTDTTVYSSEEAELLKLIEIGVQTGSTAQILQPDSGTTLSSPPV
# VEGFR2 [20] = target: T1, VEGFR2; format: biochemical; conditions: varying concentrations of ATP
# Target sequence in this assay (P35968 834-1162 limits assumed): as the sequence (P35968 834-1162 limits assumed) above
# [21] = test system: 16 different tumour cell lines; assay: Tumour cell lines proliferation in vitro; format: cell-based; conditions: read-out: average IC50 against 16 tumour cell lines proliferation
# FGFR1 [22] = target: T4, FGFR1; conditions: molecular assay, versus sorafenib
# VEGFR2 [23] = target: T1, VEGFR2
# Target sequence in this assay (P35968 20-1356): as the sequence (P35968 20-1356) above
# PDGFRα [24] = target: T3, PDGFRα; conditions: read-out: IC50 PDGFRα phosphorylation in vitro assay; ref 17 Bello et al.; cited from earlier work
# PDGFRβ [25] = target: T2, PDGFRβ; conditions: read-out: IC50 PDGFRβ phosphorylation in vitro assay; ref 17 Bello et al.; cited from earlier work
# FGFR1 [26] = target: T4, FGFR1; assay: biochemical
# [27] = day 21 versus first administration
# PDGFRβ (Mus musculus, UniProt P05622), sequence (P05622 32-1098): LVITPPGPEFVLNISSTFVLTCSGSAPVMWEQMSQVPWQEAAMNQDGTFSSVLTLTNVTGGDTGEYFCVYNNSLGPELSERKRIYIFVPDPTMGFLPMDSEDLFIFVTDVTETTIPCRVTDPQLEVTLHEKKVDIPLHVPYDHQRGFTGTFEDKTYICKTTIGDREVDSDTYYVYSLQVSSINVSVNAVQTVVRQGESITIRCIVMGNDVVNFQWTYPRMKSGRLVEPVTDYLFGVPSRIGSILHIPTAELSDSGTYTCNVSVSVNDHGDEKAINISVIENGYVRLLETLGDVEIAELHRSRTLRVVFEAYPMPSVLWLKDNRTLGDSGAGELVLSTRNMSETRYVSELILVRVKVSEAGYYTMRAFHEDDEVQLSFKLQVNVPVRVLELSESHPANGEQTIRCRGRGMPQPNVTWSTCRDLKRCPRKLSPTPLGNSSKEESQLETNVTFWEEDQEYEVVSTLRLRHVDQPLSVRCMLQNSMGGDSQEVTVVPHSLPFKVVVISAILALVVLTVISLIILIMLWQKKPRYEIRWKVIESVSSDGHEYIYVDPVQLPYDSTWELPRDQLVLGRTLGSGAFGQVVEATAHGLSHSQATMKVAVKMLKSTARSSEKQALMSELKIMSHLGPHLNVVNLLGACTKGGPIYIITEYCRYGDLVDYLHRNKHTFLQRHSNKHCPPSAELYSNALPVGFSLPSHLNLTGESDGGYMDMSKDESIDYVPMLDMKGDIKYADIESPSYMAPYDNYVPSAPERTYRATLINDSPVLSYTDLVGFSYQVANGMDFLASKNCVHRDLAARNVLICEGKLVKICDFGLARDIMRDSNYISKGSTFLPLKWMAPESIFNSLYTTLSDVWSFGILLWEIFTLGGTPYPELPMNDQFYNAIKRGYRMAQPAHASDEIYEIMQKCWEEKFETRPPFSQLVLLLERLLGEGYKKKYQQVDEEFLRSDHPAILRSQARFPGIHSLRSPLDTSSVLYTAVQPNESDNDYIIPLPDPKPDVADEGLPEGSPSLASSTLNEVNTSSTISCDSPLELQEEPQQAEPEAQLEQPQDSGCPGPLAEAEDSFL
# T2 sequence (P09619 33-1106, species assumed): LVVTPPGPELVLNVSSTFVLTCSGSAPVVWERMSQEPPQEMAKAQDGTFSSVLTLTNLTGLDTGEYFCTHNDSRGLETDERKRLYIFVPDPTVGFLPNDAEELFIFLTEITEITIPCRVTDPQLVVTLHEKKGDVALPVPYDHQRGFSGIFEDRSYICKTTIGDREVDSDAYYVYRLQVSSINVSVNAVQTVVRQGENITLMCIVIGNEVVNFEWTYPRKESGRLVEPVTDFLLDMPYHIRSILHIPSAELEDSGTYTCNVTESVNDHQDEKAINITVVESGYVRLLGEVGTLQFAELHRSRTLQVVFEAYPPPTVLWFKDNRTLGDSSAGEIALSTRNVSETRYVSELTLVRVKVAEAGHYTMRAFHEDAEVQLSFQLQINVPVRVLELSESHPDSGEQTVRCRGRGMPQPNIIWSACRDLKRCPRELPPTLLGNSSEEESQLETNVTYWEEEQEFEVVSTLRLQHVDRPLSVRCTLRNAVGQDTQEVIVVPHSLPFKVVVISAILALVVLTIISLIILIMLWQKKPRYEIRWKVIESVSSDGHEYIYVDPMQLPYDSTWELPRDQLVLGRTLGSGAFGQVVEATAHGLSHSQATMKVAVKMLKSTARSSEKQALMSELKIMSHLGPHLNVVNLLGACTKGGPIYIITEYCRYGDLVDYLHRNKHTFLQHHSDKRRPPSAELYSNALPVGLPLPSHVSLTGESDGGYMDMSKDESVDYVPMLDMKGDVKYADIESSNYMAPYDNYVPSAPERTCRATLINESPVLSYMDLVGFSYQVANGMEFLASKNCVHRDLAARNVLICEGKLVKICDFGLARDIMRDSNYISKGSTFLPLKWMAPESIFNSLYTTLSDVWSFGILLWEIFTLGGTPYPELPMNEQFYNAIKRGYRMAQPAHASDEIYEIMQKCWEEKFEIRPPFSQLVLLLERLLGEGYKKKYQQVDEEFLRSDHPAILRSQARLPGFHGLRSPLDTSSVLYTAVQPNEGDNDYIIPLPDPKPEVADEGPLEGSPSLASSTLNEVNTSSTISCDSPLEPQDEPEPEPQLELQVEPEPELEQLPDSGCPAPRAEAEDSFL
# T3 sequence (P16234 24-1089, species assumed): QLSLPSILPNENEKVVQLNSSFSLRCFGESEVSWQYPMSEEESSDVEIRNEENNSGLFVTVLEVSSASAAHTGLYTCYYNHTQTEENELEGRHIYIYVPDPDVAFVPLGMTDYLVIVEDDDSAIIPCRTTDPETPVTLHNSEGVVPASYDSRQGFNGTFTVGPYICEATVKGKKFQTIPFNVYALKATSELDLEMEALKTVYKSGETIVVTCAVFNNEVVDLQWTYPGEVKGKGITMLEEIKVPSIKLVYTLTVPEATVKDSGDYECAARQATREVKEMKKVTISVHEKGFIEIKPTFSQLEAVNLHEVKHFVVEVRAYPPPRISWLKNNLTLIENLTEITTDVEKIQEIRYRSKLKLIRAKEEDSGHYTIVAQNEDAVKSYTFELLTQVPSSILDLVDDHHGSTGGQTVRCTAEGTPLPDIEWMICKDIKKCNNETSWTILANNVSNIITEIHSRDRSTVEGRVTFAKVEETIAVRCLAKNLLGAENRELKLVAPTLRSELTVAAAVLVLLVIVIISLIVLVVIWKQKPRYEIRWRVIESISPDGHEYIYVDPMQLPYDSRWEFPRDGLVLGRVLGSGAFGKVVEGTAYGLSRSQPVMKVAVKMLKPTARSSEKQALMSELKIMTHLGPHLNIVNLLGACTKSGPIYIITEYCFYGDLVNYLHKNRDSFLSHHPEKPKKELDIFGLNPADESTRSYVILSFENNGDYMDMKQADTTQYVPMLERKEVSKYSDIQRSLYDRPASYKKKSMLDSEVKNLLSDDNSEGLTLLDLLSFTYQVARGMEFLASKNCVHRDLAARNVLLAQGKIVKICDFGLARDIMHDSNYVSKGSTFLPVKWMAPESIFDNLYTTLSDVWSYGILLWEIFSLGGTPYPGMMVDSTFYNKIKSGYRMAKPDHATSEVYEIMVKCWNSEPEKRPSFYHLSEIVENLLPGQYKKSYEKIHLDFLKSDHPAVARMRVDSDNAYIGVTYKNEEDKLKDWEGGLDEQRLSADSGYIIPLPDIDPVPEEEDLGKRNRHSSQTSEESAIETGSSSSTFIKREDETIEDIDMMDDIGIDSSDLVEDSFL
structure (smiles),measurement,setting,value
"CNC(=O)c1cccc2cc(Oc3ccnc4cc(OCC5(N)CC5)c(OC)cc34)ccc12 [AL3810, 6-[[7-[(1-aminocyclopropyl)methoxy]-6-methoxy-4-quinolyl]oxy]-N-methyl-naphthalene-1-carboxamide]",IC50,VEGFR1,12 nM
same,IC50,VEGFR2 [1],4 nM
same,IC50,PDGFRβ [2],8 nM
same,IC50,PDGFRα [3],13 nM
same,IC50,RET,200 nM
same,IC50,c-Kit,527 nM
same,IC50,c-Src,4900 nM
same,IC50,EPH-A2,6660 nM
same,IC50,EPH-B2,902 nM
same,IC50,HUVEC cells [4],42 nM
same,IC50,HUVEC cells [5],140 nM
same,inhibition rate of blood vessel numbers and branching,[6]; 0.3 nmol/egg,45.4%
same,inhibition rate of blood vessel numbers and branching,[6]; 1 nmol/egg,82.5%
same,reduction of vessel density (CD31),[7]; 5 mg/kg,45%
same,reduction of vessel density (CD31),[7]; 10 mg/kg,80%
same,reduction of vessel density (CD31),[7]; 20 mg/kg,90%
same,reduction of PDGFRβ positive cells,[8]; 5 mg/kg,52%
same,reduction of PDGFRβ positive cells,[8]; 10 mg/kg,73%
same,reduction of PDGFRβ positive cells,[8]; 20 mg/kg,86%
same,tumour response,[9],tumour regression
same,tumour response,[10],tumour regression
same,T/C,"[11]; No.213847, 5 mg/kg p.o., 5 days per week",9.01%
same,tumour response,"[11]; No.213847, 10–20 mg/kg",tumour regression
same,T/C,"[12]; No.20090223, 5 mg/kg p.o., 5 days per week",13.3%
same,tumour response,"[12]; No.20090223, 10–20 mg/kg",tumour regression
same,toxicity in xenograft-bearing mice,[13],no obvious toxicity observed
same,bioavailability,"[14]; rat, in vivo, po",31%
same,Tmax,"[14]; rat, plasma, po, 10 mg",6 h
same,concentration at 24 hrs,"[14]; rat, plasma, po, 10 mg",< 50 ng/mL
same,maximal plasma concentration,"[14]; rats, 10 mg p.o.",~1000 ng/mL
same,"exposure in liver, improvement versus first administration",[15]; [27],1.6 times
same,"exposure in lung, improvement versus first administration",[15]; [27],1.4 times
same,"exposure in renal tissue, improvement versus first administration",[15]; [27],2.1 times
same,"exposure in tumours, improvement versus first administration",[15]; [27],2.9 times
same,concentration at 21 day,[15]; kidney,398 ng/g
same,concentration at 21 day,[15]; liver,276 ng/g
same,concentration at 21 day,[15]; lung,208 ng/g
same,concentration at 21 day,[15]; plasma,7.8 ng/mL
same,concentration at 21 day,[15]; tumour,403 ng/g
same,bFGF-induced FGFR1 autophosphorylation / activation,FGFR1 [16],blocked
same,PDGFBB-induced PDGFRβ autophosphorylation,"PDGFRβ [17]; 100 nmol/l, Swiss3T3, PDGF-BB 40 ng/ml",inhibited; also recorded: almost completely block
same,VEGF-induced activation of ERK1/2 and AKT,ERK1/2 and AKT,dramatically inhibited
same,reversibility of VEGFR2 inhibition,VEGFR2 [18],reversible inhibitor
same,VEGFR2 phosphorylation after inhibitor washout,VEGFR2 [19]; 6 hrs after removal,recovered substantially
same,VEGFR2 phosphorylation after inhibitor washout,VEGFR2 [19]; 24 hrs after washout,total restoration
same,mode of inhibition versus ATP,VEGFR2 [20],ATP competitive
same,IC50,[21],~18700 nM
same,IC50 against FGFR lower than sorafenib,FGFR1 [22],25 fold
same,Tyr996 phosphorylation of VEGFR2,VEGFR2 [23],inhibited
same,VEGFR2 autophosphorylation,VEGFR2 [23],almost completely blocked
same,IC50,PDGFRα [24],175 nM
same,IC50,PDGFRβ [25],525 nM
same,IC50,FGFR1 [26],7 nM
"CNC(=O)c1cc(Oc2ccc(NC(=O)Nc3ccc(Cl)c(C(F)(F)F)c3)cc2)ccn1 [Sorafenib, reference compound]",IC50,HUVEC cells [4],337 nM
same,IC50,HUVEC cells [5],2260 nM
same,bFGF-induced FGFR1 autophosphorylation / activation,FGFR1 [16],potent inhibitory effects
same,PDGFRβ activation,"PDGFRβ [17]; Swiss3T3, concentration not stated",potent inhibitory effects
